Patent US11738063B2, “Pharmaceutical composition for preventing or treating neurodegenerative diseases which includes flower extract of Daphne genkwa or fractions thereof as active ingredient” (KOREA RESEARCH INSTITUTE OF BIOSCIENCE AND BIOTECHNOLOGY, priority 2016, dated 2023)
“And” between values parts separate entries of the source, which are not always exact repeats. Equal values may be shown once.

Legend:
[1] = tested on: Salmonella typhimurium TA98; assay: Bacterial reverse mutation assay, TA98; conditions: TA98, S9+, 1.0 μg/plate, positive control
[2] = tested on: Salmonella typhimurium TA1535; assay: Bacterial reverse mutation assay, TA1535; conditions: TA1535, S9+, 3.0 μg/plate, positive control
[3] = tested on: Salmonella typhimurium TA100; assay: Bacterial reverse mutation assay, TA100; conditions: TA100, S9+, 2.0 μg/plate, positive control
[4] = tested on: Salmonella typhimurium TA1537; assay: Bacterial reverse mutation assay, TA1537; conditions: TA1537, S9+, 3.0 μg/plate, positive control
[5] = tested on: Escherichia coli WP2uvrA (pKM101); assay: Bacterial reverse mutation assay, WP2uvrA (pKM101); conditions: S9+, 2.0 μg/plate, positive control

With Nc1ccc2cc3ccccc3cc2c1 [2-Aminoanthracene (2-AA), 2-Aminoanthracene] the “Mean revertant colony count” value [1] was 362 and 440, the “Mean revertant colony count” value [2] was 101 and the “Mean revertant colony count” value [3] was 592 and 838. The “Mean revertant colony count” value [4] was 129 and 220 and the “Mean revertant colony count” value [5] was 462 and 545.
